Laboratory results taken from ChEMBL document CHEMBL5247631, “Ferroptosis-related small-molecule compounds in cancer therapy: Strategies and applications” (Eur J Med Chem, 2022).
One block for each compound: values may come before it.

Tests used:
HEp-2 = assay: Anticancer activity against human HEp-2 cells assessed as reduction in cell viability incubated for 72 hrs by MTT assay; assay type: functional, cell-based; settings: HEp-2, 72 h
THP-1 = assay: Anticancer activity against human THP-1 cells assessed as reduction in cell viability incubated for 72 hrs by MTT assay; assay type: functional, cell-based; settings: THP-1, 72 h
HL-60 = assay: Anticancer activity against human HL-60 cells assessed as reduction in cell viability incubated for 72 hrs by MTT assay; assay type: functional, cell-based; settings: HL-60, 72 h
CNE = assay: Anticancer activity against human CNE cells assessed as reduction in cell viability incubated for 72 hrs by MTT assay; assay type: functional, cell-based
A 172 = assay: Anticancer activity against human A-172 cells assessed as reduction in cell viability incubated for 72 hrs by MTT assay; assay type: functional, cell-based; settings: A 172, 72 h
[1] = Anticancer activity against human U87 cells assessed as reduction in cell viability incubated for 72 hrs by MTT assay; assay type: functional, cell-based, U-87MG ATCC; settings: U-87 MG
MDA-MB-231 [2] = assay: Cytotoxicity against human MDA-MB-231 cells assessed as inhibition of cell viability incubated for 24 hrs by sulforhodamine B assay; assay type: functional, cell-based; settings: MDA-MB-231, 24 h
DBTRG-05MG = assay: Cytotoxicity against human DBTRG-05MG cells assessed as inhibition of cell viability incubated for 24 hrs by sulforhodamine B assay; assay type: functional, cell-based
MDA-MB-231 [3] = assay: Anticancer activity against human MDA-MB-231 cells assessed as inhibition of cell viability incubated for 48 hrs by CCK-8 assay; assay type: functional, cell-based; settings: MDA-MB-231, 48 h
MCF7 = assay: Anticancer activity against human MCF7 cells assessed as inhibition of cell viability incubated for 48 hrs by CCK-8 assay; assay type: functional, cell-based; settings: MCF7, 48 h
HT-1080 [4] = assay: Induction of ferroptosis in human HT-1080 cells assessed as inhibition of (cystine-glutamate antiporter) system Xc- mediated cystine transport; assay type: functional, cell-based
[5] = Induction of ferroptosis in human BJeLR cells assessed as inhibition of (cystine-glutamate antiporter) system Xc- mediated cystine transport; assay type: functional, cell-based; settings: bjelr cell
Calu-1 = assay: Induction of ferroptosis in human Calu-1 cells assessed as inhibition of (cystine-glutamate antiporter) system Xc- mediated cystine transport; assay type: functional, cell-based
RKO = assay: Antitumor activity against human RKO cells assessed as reduction in cell viability incubated for 48 hrs by CCK8 assay; assay type: functional, cell-based
SW480 [6] = assay: Antitumor activity against human SW480 cells assessed as reduction in cell viability incubated for 48 hrs by CCK8 assay; assay type: functional, cell-based; settings: SW480, 48 h
HCT-116 = assay: Antitumor activity against human HCT-116 cells assessed as reduction in cell viability incubated for 48 hrs by CCK8 assay; assay type: functional, cell-based; settings: HCT-116, 48 h
MEF = assay: Antitumor activity against mouse MEF cells xenografted in nude mouse assessed as reduction in tumor weight at 40 mg/kg, po twice daily for 7 days relative to control; assay type: functional; set-up: scale not given: the % may be the effect or the level left; settings: time 7 day
[7] = Antiproliferative activity against BALB/C mouse TBCP-1 cells assessed as inhibition of cell proliferation incubated for 3 days by sulforhodamine B colorimetric assay; assay type: functional, cell-based; settings: TBCP-1, 72 h
SK-BR-3 = assay: Antiproliferative activity against human SK-BR-3 cells assessed as inhibition of cell proliferation incubated for 3 days by sulforhodamine B colorimetric assay; assay type: functional, cell-based; settings: SK-BR-3, 72 h
Glioblastoma cell line = assay: Induction of ferroptosis in human primary glioblastoma cells assessed as decrease in GPX4 protein expression incubated for 48 hrs by Western blot analysis; assay type: functional, cell-based
[8] = Induction of ferroptosis in human U-87 MG cells assessed as decrease in GPX4 protein expression incubated for 48 hrs by Western blot analysis; assay type: functional, cell-based, U-87MG ATCC
BXPC-3 = assay: Anticancer activity against human BXPC-3 cells assessed as reduction in cell viability incubated for 48 hrs by MTT assay; assay type: functional, cell-based; settings: BXPC-3, 48 h
SW1990 = assay: Anticancer activity against human SW1990 cells assessed as reduction in cell viability incubated for 48 hrs by MTT assay; assay type: functional, cell-based; settings: SW1990, 48 h
[9] = Anticancer activity against human PHMLER expressing CD24low phenotype cells assessed as reduction in cell viability incubated for 72 hrs; assay type: functional, cell-based
HT-1080 [10] = assay: Antitumor activity against human HT-1080 cells assessed as inhibition of cell viability; assay type: functional, cell-based
Hep 3B2 = assay: Antitumor activity against human Hep3B cells assessed as inhibition of cell viability; assay type: functional, cell-based
HepG2 = assay: Antitumor activity against human HepG2 cells assessed as inhibition of cell viability; assay type: functional, cell-based
Huh-7 = assay: Antitumor activity against human Huh-7 cells assessed as inhibition of cell viability; assay type: functional, cell-based
SW480 [11] = assay: Anticancer activity against human SW480 cells assessed as reduction in cell viability incubated for 24 hrs in presence of 10% FBS by CCK8 assay; assay type: functional, cell-based; settings: SW480, 24 h
BGC-823 = assay: Anticancer activity against human BGC-823 cells assessed as inhibition of cell viability incubated for 72 hrs by MTT assay; assay type: functional, cell-based; settings: BGC-823, 72 h
SGC-7901 = assay: Anticancer activity against human SGC-7901 cells assessed as inhibition of cell viability incubated for 72 hrs by MTT assay; assay type: functional, cell-based; settings: SGC-7901, 72 h
NCI-N87 = assay: Anticancer activity against human NCI-N87 cells assessed as inhibition of cell viability incubated for 72 hrs by MTT assay; assay type: functional, cell-based; settings: NCI-N87, 72 h

- IC50 (THP-1): 9.05 µM
- IC50 (HL-60): 6.82 µM
SMILES: C[C@H]1[C@@H](O)O[C@@H]2O[C@@]3(C)CC[C@H]4[C@H](C)CC[C@@H]1[C@@]24OO3 [ARTENIMOL]
- IC50 (HEp-2): 18.1 µM
- IC50 (CNE): 18.4 µM
- IC50 (A 172): 66 µM
- IC50 [1]: 50 µM

SMILES: CC(C)(C)c1ccc(S(=O)(=O)/C=C/C#N)cc1 [BAY-11-7085]
- IC50 (MDA-MB-231 [2]): 4.31 µM
- IC50 (DBTRG-05MG): 5.53 µM

- IC50 (MDA-MB-231 [3]): 53.5 µM
- IC50 (MCF7): 41.9 µM
SMILES: COc1cc(/C=C/C(=O)CC(=O)/C=C/c2ccc(O)c(OC)c2)ccc1O [CURCUMIN]

SMILES: CCOc1ccccc1-n1c(C(C)N2CCN(C(=O)COc3ccc(Cl)cc3)CC2)nc2ccccc2c1=O (centres undefined) [ERASTIN]
- IC50 (HT-1080 [4]): 0.2 µM
- IC50 [5]: 0.625 µM
- IC50 (Calu-1): 0.14 µM

- IC50 (SW480 [6]): 15.1 µM
- IC50 (HCT-116): 47.6 µM
SMILES: C=CCc1ccc(O)c(-c2ccc(O)c(CC=C)c2)c1 [HONOKIOL]
- IC50 (RKO): 11.4 µM

SMILES: C[C@H](CN1CCCC1)C(=O)c1ccc(C(F)(F)F)cc1 [LANPERISONE]
- Activity (MEF): 37%

- IC50 (SK-BR-3): 0.0072 µM
SMILES: CCOc1cc2ncc(C#N)c(Nc3ccc(OCc4ccccn4)c(Cl)c3)c2cc1NC(=O)/C=C/CN(C)C [NERATINIB]
- IC50 [7]: 0.117 µM

- IC50 (Glioblastoma cell line): 2 µM
- IC50 [8]: < 5 µM
SMILES: COc1ccc(/C=C/C(=O)C(CC2CCC2)C(=O)/C=C/c2ccc(OC)c(OC)c2)cc1OC [ROSOLUTAMIDE]

SMILES: C[C@@H]1CC[C@@]2(OC1)O[C@H]1C[C@H]3[C@@H]4CC=C5C[C@@H](O)C[C@@H](O)[C@]5(C)[C@H]4CC[C@]3(C)[C@H]1[C@@H]2C [RUSCOGENIN]
- IC50 (BXPC-3): 7.32 µM
- IC50 (SW1990): 8.14 µM

SMILES: CC[C@@H](C(=O)[C@@H](C)[C@@H](O)[C@H](C)[C@@H]1O[C@@H]([C@@H](CC)C(=O)O)CC[C@@H]1C)[C@H]1O[C@]2(C=C[C@@H](O)[C@]3(CC[C@@](C)([C@H]4CC[C@](O)(CC)[C@H](C)O4)O3)O2)[C@H](C)C[C@@H]1C [SALINOMYCIN]
- IC50 [9]: 1 µM

- IC50 (HT-1080 [10]): < 10 µM
- IC50 (HepG2): < 10 µM
- IC50 (Huh-7): < 10 µM
SMILES: CNC(=O)c1cc(Oc2ccc(NC(=O)Nc3ccc(Cl)c(C(F)(F)F)c3)cc2)ccn1 [SORAFENIB]
- IC50 (Hep 3B2): < 10 µM

- IC50 (HT-1080 [4]): 450 µM
- IC50 (Calu-1): 460 µM
SMILES: O=C(O)c1cc(/N=N/c2ccc(S(=O)(=O)Nc3ccccn3)cc2)ccc1O [SULFASALAZINE]

- IC50 (SW480 [11]): 8.15 µM
SMILES: CCC(C)/C=C(\C)[C@H]1C(C)=C[C@@]2(C)C[C@@H](C)CC[C@@H]2[C@H]1C(=O)C1=C/C(=C/c2ccc(O)cc2)NC1=O (some centres undefined) [TALAROCONVOLUTIN A]

- IC50 (BGC-823): 2.8 µM
- IC50 (SGC-7901): 250 µM
SMILES: Cc1coc2c1C(=O)C(=O)c1c-2ccc2c1CCCC2(C)C [TANSHINONE IIA]
- IC50 (NCI-N87): 3.1 µM
